# Experiments:
# Assay in all cases: Kinase panel (140 human kinases)
# Assay type in all cases: biochemical
# PAK6 = PAK6 (Homo sapiens, UniProt Q9NQU5)
# Experimental: (§1) BAY-3827 and BAY-974 were assayed against a 140-human kinase panel at 0.1 μM and at 1 μM (BAY-3827) concentration in a [γ-^33P] ATP–based radioactive filter binding assay ([31], [65]) setup in duplicates with reported mean remaining kinase percentage activity alongside SD (table S1). Assays were performed at either 5, 20, or 50 μM ATP to be at or below the Michaelis constant for ATP for each enzyme and conducted by the services offered by the International Centre for Kinase Profiling at MRC Protein Phosphorylation and Ubiquitylation Unit, University of Dundee (https://www.kinase-screen.mrc.ac.uk/services/premier-screen).
# SIK3 = SIK3 (Homo sapiens, UniProt Q9Y2K2)
# Experimental: as §1
# ROCK 2 = ROCK 2 (Homo sapiens, UniProt O75116)
# Experimental: as §1
# MKK6 = MKK6 (Homo sapiens, UniProt P52564)
# Experimental: as §1
# CAMKKb = CAMKKb (Homo sapiens, UniProt Q96RR4)
# Experimental: as §1
# MPSK1 = MPSK1 (Homo sapiens, UniProt O75716)
# Experimental: as §1
# RSK1 = RSK1 (Homo sapiens, UniProt Q15418)
# Experimental: as §1
# PIM1 = PIM1 (Homo sapiens, UniProt P11309)
# Experimental: as §1
# IRAK1 = IRAK1 (Homo sapiens, UniProt P51617)
# Experimental: as §1
# PAK2 = PAK2 (Homo sapiens, UniProt Q13177)
# Experimental: as §1
# CHK1 = CHK1 (Homo sapiens, UniProt O14757)
# Experimental: as §1
# WNK1 = WNK1 (Homo sapiens, UniProt Q9H4A3)
# Experimental: as §1
# DAPK1 = DAPK1 (Homo sapiens, UniProt P53355)
# Experimental: as §1
# PKA = PKA (Homo sapiens, UniProt P17612)
# Experimental: as §1
# BRSK1 = BRSK1 (Homo sapiens, UniProt Q8TDC3)
# Experimental: as §1
# Aurora B = Aurora B (Homo sapiens, UniProt Q96GD4)
# Experimental: as §1
# PLK1 = PLK1 (Homo sapiens, UniProt P53350)
# Experimental: as §1
# Src = Src (Homo sapiens, UniProt P12931)
# Experimental: as §1
# ERK8 = ERK8 (Homo sapiens, UniProt Q8TD08)
# Experimental: as §1
# PDGFRA = PDGFRA (Homo sapiens, UniProt P16234)
# Experimental: as §1
# EPH-B4 = EPH-B4 (Homo sapiens, UniProt P54760)
# Experimental: as §1
# TTBK2 = TTBK2 (Homo sapiens, UniProt Q6IQ55)
# Experimental: as §1
# PIM2 = PIM2 (Homo sapiens, UniProt Q9P1W9)
# Experimental: as §1
# SRPK1 = SRPK1 (Homo sapiens, UniProt Q96SB4)
# Experimental: as §1
# EPH-A2 = EPH-A2 (Homo sapiens, UniProt P29317)
# Experimental: as §1
# GCK = GCK (Homo sapiens, UniProt Q12851)
# Experimental: as §1
# MAPKAP-K2 = MAPKAP-K2 (Homo sapiens, UniProt P49137)
# Experimental: as §1
# DYRK2 = DYRK2 (Homo sapiens, UniProt Q92630)
# Experimental: as §1
# TAK1 = target: T1, TAK1 (Homo sapiens, UniProt O43318)
# T1 sequence (O43318 1-303 limits assumed): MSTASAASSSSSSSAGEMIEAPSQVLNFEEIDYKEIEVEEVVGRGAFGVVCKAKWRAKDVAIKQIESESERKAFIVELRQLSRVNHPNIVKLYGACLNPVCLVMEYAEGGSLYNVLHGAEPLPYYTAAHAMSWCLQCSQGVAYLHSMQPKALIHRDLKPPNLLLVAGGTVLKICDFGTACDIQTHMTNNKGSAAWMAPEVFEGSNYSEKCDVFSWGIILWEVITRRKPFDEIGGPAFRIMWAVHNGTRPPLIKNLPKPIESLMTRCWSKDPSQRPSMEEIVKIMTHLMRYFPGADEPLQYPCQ
# Experimental: as §1
# EF2K = EF2K (Homo sapiens, UniProt O00418)
# Experimental: as §1
# CDK9-Cyclin T1 = CDK9-Cyclin T1 (Homo sapiens, UniProt P50750)
# Experimental: as §1
# RSK2 = RSK2 (Homo sapiens, UniProt P51812)
# Experimental: as §1
# CHK2 = CHK2 (Homo sapiens, UniProt O96017)
# Experimental: as §1
# LKB1 = LKB1 (Homo sapiens, UniProt Q15831)
# Experimental: as §1
# ERK2 = ERK2 (Homo sapiens, UniProt P28482)
# Experimental: as §1
# [1] = 1 μM, cross-referenced with screen data of ref 37, read-out: activity remaining after treatment
# WNK1, sequence (Q9H4A3 whole entry): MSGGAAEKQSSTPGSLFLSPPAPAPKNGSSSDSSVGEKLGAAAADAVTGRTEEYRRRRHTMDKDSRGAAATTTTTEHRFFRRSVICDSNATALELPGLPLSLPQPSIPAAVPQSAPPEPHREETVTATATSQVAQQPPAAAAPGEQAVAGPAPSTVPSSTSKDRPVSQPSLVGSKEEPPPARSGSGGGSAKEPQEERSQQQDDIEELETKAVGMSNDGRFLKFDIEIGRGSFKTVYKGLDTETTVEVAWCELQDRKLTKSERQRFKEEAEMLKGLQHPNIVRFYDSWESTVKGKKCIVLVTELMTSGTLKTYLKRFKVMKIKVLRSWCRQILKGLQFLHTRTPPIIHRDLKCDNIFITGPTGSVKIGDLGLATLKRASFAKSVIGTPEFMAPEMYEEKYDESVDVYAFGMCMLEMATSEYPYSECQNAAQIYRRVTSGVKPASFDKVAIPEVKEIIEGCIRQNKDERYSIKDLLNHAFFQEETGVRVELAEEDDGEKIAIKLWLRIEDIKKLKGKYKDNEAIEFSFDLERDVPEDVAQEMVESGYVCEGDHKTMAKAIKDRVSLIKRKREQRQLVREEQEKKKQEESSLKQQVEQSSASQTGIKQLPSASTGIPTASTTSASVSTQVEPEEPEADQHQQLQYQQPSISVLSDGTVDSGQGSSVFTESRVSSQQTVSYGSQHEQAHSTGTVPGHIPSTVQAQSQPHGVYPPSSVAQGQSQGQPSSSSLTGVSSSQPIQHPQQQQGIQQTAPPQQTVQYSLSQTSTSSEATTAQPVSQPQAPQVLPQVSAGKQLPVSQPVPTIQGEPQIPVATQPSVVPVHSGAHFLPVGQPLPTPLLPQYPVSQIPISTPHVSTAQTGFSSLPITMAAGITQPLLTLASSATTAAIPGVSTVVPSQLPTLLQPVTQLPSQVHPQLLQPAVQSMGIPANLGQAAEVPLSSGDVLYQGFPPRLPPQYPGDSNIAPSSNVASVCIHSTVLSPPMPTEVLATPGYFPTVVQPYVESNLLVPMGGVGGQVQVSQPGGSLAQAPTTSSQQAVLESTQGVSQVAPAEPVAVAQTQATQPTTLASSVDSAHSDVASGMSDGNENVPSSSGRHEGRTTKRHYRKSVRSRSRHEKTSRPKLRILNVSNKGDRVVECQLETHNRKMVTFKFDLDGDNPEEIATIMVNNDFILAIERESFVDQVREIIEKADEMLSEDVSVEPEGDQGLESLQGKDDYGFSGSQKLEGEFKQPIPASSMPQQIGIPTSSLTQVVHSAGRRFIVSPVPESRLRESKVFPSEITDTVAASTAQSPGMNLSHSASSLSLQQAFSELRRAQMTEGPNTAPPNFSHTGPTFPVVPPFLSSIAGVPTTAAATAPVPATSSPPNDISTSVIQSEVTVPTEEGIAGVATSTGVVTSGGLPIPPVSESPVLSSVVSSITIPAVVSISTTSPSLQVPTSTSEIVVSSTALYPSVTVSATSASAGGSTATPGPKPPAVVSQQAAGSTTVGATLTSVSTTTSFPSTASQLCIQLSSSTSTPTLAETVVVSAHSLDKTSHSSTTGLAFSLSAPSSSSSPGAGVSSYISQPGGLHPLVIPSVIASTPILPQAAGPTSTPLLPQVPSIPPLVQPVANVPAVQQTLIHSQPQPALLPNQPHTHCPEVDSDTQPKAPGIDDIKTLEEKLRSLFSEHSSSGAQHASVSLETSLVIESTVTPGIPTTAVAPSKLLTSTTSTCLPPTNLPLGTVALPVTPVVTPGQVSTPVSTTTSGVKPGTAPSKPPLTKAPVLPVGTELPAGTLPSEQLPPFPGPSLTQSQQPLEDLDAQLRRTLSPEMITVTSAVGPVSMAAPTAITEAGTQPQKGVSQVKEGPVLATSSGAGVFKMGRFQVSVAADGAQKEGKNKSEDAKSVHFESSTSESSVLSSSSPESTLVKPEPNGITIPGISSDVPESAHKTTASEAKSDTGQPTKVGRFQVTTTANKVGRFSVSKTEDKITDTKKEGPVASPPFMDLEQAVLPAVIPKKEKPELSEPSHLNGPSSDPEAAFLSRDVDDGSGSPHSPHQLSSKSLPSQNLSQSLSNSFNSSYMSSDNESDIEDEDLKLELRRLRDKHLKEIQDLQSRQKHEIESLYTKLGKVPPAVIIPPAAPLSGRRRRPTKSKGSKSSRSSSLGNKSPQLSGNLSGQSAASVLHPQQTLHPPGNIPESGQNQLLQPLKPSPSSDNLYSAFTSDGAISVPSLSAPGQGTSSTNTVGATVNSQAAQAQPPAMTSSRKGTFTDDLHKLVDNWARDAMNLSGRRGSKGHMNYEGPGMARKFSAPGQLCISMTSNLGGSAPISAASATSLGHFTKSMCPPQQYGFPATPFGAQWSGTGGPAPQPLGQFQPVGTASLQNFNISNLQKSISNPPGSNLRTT
# RSK1, sequence (Q15418 whole entry): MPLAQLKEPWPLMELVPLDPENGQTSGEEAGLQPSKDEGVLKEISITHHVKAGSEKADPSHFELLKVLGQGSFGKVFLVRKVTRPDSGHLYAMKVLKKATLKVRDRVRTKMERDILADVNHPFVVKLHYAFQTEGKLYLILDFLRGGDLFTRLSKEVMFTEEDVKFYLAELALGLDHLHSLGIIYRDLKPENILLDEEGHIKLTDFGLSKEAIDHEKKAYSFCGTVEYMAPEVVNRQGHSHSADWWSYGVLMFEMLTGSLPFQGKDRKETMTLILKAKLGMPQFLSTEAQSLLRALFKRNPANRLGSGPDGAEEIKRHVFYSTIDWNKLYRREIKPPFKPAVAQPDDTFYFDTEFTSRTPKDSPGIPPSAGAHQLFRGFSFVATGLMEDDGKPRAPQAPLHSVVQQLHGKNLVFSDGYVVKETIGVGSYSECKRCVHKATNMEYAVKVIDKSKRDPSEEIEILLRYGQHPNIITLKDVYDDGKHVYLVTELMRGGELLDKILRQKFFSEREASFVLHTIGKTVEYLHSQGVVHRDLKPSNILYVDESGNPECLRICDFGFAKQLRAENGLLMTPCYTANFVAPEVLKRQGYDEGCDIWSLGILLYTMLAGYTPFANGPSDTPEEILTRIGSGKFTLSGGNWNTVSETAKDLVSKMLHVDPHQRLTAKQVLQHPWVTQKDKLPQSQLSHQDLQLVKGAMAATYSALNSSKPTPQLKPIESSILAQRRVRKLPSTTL
# RSK2, sequence (P51812 whole entry): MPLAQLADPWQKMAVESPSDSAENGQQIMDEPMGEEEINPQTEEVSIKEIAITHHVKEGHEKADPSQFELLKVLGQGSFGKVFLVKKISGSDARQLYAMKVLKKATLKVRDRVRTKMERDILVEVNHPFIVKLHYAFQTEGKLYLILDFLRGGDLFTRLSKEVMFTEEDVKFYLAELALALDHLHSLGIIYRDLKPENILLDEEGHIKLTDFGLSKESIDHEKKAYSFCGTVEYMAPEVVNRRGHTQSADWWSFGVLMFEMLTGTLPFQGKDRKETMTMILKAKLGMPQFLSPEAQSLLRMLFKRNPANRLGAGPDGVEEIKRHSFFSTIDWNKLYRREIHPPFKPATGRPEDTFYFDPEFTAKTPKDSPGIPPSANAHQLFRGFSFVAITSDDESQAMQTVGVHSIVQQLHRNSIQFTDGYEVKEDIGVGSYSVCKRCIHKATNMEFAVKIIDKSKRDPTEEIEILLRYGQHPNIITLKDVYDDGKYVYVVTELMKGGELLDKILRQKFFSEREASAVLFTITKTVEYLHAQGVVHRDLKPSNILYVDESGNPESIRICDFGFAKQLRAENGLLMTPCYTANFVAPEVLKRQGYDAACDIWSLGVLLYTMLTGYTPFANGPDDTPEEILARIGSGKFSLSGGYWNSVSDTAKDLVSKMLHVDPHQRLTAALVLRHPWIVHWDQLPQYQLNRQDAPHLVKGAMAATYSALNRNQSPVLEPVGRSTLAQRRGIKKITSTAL
# PIM2, sequence (Q9P1W9 whole entry): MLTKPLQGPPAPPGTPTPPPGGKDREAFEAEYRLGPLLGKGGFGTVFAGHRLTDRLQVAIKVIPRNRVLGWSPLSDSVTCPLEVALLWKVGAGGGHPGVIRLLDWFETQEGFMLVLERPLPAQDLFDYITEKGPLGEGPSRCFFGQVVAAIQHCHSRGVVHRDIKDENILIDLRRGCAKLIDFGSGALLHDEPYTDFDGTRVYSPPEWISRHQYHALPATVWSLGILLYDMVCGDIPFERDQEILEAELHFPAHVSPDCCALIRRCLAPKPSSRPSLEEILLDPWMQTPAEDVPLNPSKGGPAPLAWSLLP
# IRAK1, sequence (P51617 whole entry): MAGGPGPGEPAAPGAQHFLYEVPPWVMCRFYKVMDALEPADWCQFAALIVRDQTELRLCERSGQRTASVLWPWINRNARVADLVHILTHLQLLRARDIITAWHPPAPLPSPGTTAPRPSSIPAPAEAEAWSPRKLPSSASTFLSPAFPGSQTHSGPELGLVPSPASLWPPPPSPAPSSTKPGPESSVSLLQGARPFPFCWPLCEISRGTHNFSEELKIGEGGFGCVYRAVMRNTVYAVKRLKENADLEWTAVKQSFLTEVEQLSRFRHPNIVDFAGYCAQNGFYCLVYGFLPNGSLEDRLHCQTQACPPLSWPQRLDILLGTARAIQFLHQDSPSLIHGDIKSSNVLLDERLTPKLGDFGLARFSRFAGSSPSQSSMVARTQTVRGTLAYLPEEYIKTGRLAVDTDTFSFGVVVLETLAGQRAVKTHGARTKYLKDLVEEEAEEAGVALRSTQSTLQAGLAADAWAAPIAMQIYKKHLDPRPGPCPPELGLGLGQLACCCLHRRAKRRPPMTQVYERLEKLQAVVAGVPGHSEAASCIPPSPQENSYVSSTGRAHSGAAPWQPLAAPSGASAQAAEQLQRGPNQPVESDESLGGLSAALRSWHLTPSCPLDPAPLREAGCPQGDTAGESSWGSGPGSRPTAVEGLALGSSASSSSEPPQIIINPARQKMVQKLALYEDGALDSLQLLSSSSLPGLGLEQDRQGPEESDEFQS
compound,measurement,setting,value
"CCc1ccccc1C(=O)Nc1n[nH]c2c(C)c(F)c(C3C(C#N)=C(C)N(C)C(C)=C3C#N)cc12 [BAY-3827, N-[5-(3,5-dicyano-1,2,6-trimethyl-4H-pyridin-4-yl)-6-fluoro-7-methyl-1H-indazol-3-yl]-2-ethylbenzamide]",remaining activity at 0.1 µM,PAK6,106%
same,remaining activity at 0.1 µM,SIK3,99%
same,remaining activity at 0.1 µM,ROCK 2,83%
same,remaining activity at 0.1 µM,MKK6,101%
same,remaining activity at 0.1 µM,CAMKKb,97%
same,remaining activity at 0.1 µM,MPSK1,135%
same,inhibition at 0.1 µM,RSK1; 0.1 μM,80 to 85%
same,remaining activity at 1 µM,RSK1; [1],≤ 50%
same,remaining activity at 0.1 µM,PIM1,86%
same,inhibition at 0.1 µM,IRAK1,~60%
same,remaining activity at 0.1 µM,IRAK1,≤ 50%
same,remaining activity at 0.1 µM,PAK2,88%
same,remaining activity at 0.1 µM,CHK1,66%
same,remaining activity at 0.1 µM,WNK1,101%
same,remaining activity at 1 µM,WNK1; [1],≥ 99%
same,remaining activity at 0.1 µM,DAPK1,94%
same,remaining activity at 0.1 µM,PKA,94%
same,remaining activity at 0.1 µM,BRSK1,77%
same,inhibition at 0.1 µM,Aurora B,~60%
same,remaining activity at 0.1 µM,Aurora B,≤ 50%
same,remaining activity at 0.1 µM,PLK1,97%
same,remaining activity at 0.1 µM,Src,90%
same,remaining activity at 0.1 µM,ERK8,66%
same,remaining activity at 0.1 µM,PDGFRA,82%
same,remaining activity at 0.1 µM,EPH-B4,109%
same,remaining activity at 0.1 µM,TTBK2,93%
same,remaining activity at 0.1 µM,PIM2,112%
same,remaining activity at 1 µM,PIM2; [1],≥ 99%
same,remaining activity at 0.1 µM,SRPK1,111%
same,remaining activity at 0.1 µM,EPH-A2,114%
same,remaining activity at 0.1 µM,GCK,105%
same,remaining activity at 0.1 µM,MAPKAP-K2,82%
same,remaining activity at 0.1 µM,DYRK2,89%
same,remaining activity at 0.1 µM,TAK1,118%
same,remaining activity at 1 µM,TAK1; [1],≥ 99%
same,remaining activity at 0.1 µM,EF2K,91%
same,remaining activity at 0.1 µM,CDK9-Cyclin T1,97%
same,remaining activity at 0.1 µM,RSK2,90%
same,remaining activity at 1 µM,RSK2; [1],≤ 50%
same,remaining activity at 0.1 µM,CHK2,93%
same,remaining activity at 0.1 µM,LKB1,97%
same,remaining activity at 0.1 µM,ERK2,116%
"CC1=C(C#N)C(c2ccc3c(c2)c(NC(=O)c2ccccc2C)nn3C)C(C#N)=C(C)N1 [BAY-974, N-[5-(3,5-dicyano-2,6-dimethyl-1,4-dihydropyridin-4-yl)-1-methylindazol-3-yl]-2-methylbenzamide]",remaining activity at 0.1 µM,PAK6,102%
same,remaining activity at 0.1 µM,SIK3,81%
same,remaining activity at 0.1 µM,ROCK 2,98%
same,remaining activity at 0.1 µM,MKK6,94%
same,remaining activity at 0.1 µM,CAMKKb,107%
same,remaining activity at 0.1 µM,MPSK1,105%
same,remaining activity at 0.1 µM,RSK1; 0.1 μM,66%
same,remaining activity at 0.1 µM,PIM1,82%
same,inhibition at 0.1 µM,IRAK1,55 to 90%
same,remaining activity at 0.1 µM,PAK2,88%
same,remaining activity at 0.1 µM,CHK1,78%
same,remaining activity at 0.1 µM,WNK1,117%
same,remaining activity at 0.1 µM,DAPK1,109%
same,remaining activity at 0.1 µM,PKA,103%
same,remaining activity at 0.1 µM,BRSK1,96%
same,remaining activity at 0.1 µM,Aurora B,62%
same,remaining activity at 0.1 µM,PLK1,105%
same,remaining activity at 0.1 µM,Src,92%
same,remaining activity at 0.1 µM,ERK8,91%
same,remaining activity at 0.1 µM,PDGFRA,86%
same,remaining activity at 0.1 µM,EPH-B4,116%
same,remaining activity at 0.1 µM,TTBK2,91%
same,remaining activity at 0.1 µM,PIM2,113%
same,remaining activity at 0.1 µM,SRPK1,97%
same,remaining activity at 0.1 µM,EPH-A2,109%
same,remaining activity at 0.1 µM,GCK,65%
same,remaining activity at 0.1 µM,MAPKAP-K2,84%
same,remaining activity at 0.1 µM,DYRK2,79%
same,remaining activity at 0.1 µM,TAK1,93%
same,remaining activity at 0.1 µM,EF2K,119%
same,remaining activity at 0.1 µM,CDK9-Cyclin T1,114%
same,remaining activity at 0.1 µM,RSK2,117%
same,remaining activity at 0.1 µM,CHK2,87%
same,remaining activity at 0.1 µM,LKB1,104%
same,remaining activity at 0.1 µM,ERK2,110%

# — publication PMC12372887, “Mechanism and cellular actions of the potent AMPK inhibitor BAY-3827” (Science Advances, 2025)
